Organism: Rattus norvegicus
Assay: Open TG-GATES - Regimen: Single
Assay type: toxicity, organism-based, Sprague-Dawley
Design: regimen Single, gender Male, age 6 weeks
Conditions: in vivo, po, 0 mg/kg, route gavage, dose level Control; for APTT / Bas / Eos / Fbg / Hb / Ht / Lym / MCH / MCHC / MCV / Mono / Neu / PT / Plat / RBC / Ret / WBC: tissue Blood; for KIDNEY_L / KIDNEY_R / KIDNEY_TOTAL: tissue Kidney; for LIVER: tissue Liver; for A/G / ALP / ALT / AST / BUN / CRE / Ca / Cl / DBIL / GLC / IP / K / LDH / Na / PL / RALB / TBIL / TC / TG / TP / gamma-GTP: tissue Plasma

Compound Cc1nnc2n1-c1ccc(Cl)cc1C(c1ccccc1Cl)=NC2 [TRIAZOLAM] has a TERMINAL_BW (3 h) of 194.1 g, an APTT (3 h) of 20.7 s and a Bas (3 h) of 0%. For the same compound, the Eos (3 h) was 0.8%, the Fbg (3 h) was 266.4 mg/dL and the Hb (3 h) was 13.6 g/dL. The Ht (3 h) was 41.4%, the Lym (3 h) was 76% and the MCH (3 h) was 21.2 pg. The MCHC (3 h) was 32.8%, the MCV (3 h) was 64.7 fL and the Mono (3 h) was 3%. For the same compound, the Neu (3 h) was 19.2%, the PT (3 h) was 13.6 s and the Plat (3 h) was 126 x10_4/uL. The RBC (3 h) was 640.6 x10_4/ul, the Ret (3 h) was 9.3% and the WBC (3 h) was 96.6 x10_2/uL. For the same compound, the KIDNEY_L (3 h) was 0.8 g, the KIDNEY_R (3 h) was 0.8 g and the KIDNEY_TOTAL (3 h) was 1.6 g. It also gave an LIVER (3 h) of 8.3 g, an A/G (3 h) of 0.9 and an ALP (3 h) of 1477.8 IU/L. For the same compound, the ALT (3 h) was 39.8 IU/L, the AST (3 h) was 72.4 IU/L and the BUN (3 h) was 10.6 mg/dL. For the same compound, the CRE (3 h) was 0.2 mg/dL, the Ca (3 h) was 11.3 mg/dL and the Cl (3 h) was 105.6 meq/L. For the same compound, the DBIL (3 h) was 0.012 mg/dL, the GLC (3 h) was 179.2 mg/dL and the IP (3 h) was 9.1 mg/dL. The K (3 h) was 4.3 meq/L, the LDH (3 h) was 100 IU/L and the Na (3 h) was 140.8 meq/L. For the same compound, the PL (3 h) was 150.2 mg/dL, the RALB (3 h) was 2.5 g/dL and the TBIL (3 h) was 0.062 mg/dL. The TC (3 h) was 87.8 mg/dL, the TG (3 h) was 47.6 mg/dL and the TP (3 h) was 5.2 g/dL. It also gave a gamma-GTP (3 h) of 1.2 IU/L, a TERMINAL_BW (6 h) of 191.8 g and an APTT (6 h) of 17.3 s. The Bas (6 h) was 0%, the Eos (6 h) was 0.8% and the Fbg (6 h) was 258.8 mg/dL. For the same compound, the Hb (6 h) was 13.6 g/dL, the Ht (6 h) was 41.3% and the Lym (6 h) was 81.4%. It also gave an MCH (6 h) of 21.3 pg, an MCHC (6 h) of 33% and an MCV (6 h) of 64.7 fL. The Mono (6 h) was 2.2%, the Neu (6 h) was 15% and the PT (6 h) was 13.5 s. For the same compound, the Plat (6 h) was 133.4 x10_4/uL, the RBC (6 h) was 639.4 x10_4/ul and the Ret (6 h) was 8.5%. The WBC (6 h) was 82 x10_2/uL, the KIDNEY_L (6 h) was 0.9 g and the KIDNEY_R (6 h) was 0.9 g. The KIDNEY_TOTAL (6 h) was 1.7 g, the LIVER (6 h) was 7.7 g and the A/G (6 h) was 0.9. The ALP (6 h) was 1476.8 IU/L, the ALT (6 h) was 33.6 IU/L and the AST (6 h) was 72 IU/L. It also gave a BUN (6 h) of 7.8 mg/dL, a CRE (6 h) of 0.2 mg/dL and a Ca (6 h) of 10.7 mg/dL. For the same compound, the Cl (6 h) was 106.8 meq/L, the DBIL (6 h) was 0.01 mg/dL and the GLC (6 h) was 177.8 mg/dL. It also gave an IP (6 h) of 9.4 mg/dL, a K (6 h) of 4.1 meq/L and an LDH (6 h) of 104.2 IU/L. For the same compound, the Na (6 h) was 141.8 meq/L, the PL (6 h) was 138 mg/dL and the RALB (6 h) was 2.5 g/dL. It also gave a TBIL (6 h) of 0.068 mg/dL, a TC (6 h) of 75.4 mg/dL and a TG (6 h) of 51.6 mg/dL. It also gave a TP (6 h) of 5.1 g/dL, a gamma-GTP (6 h) of 1 IU/L and a TERMINAL_BW (9 h) of 192.1 g. The APTT (9 h) was 17.5 s, the Bas (9 h) was 0% and the Eos (9 h) was 0.6%. It also gave a Fbg (9 h) of 271.8 mg/dL, a Hb (9 h) of 13.2 g/dL and a Ht (9 h) of 40.4%. The Lym (9 h) was 77.4%, the MCH (9 h) was 20.9 pg and the MCHC (9 h) was 32.7%. For the same compound, the MCV (9 h) was 64 fL, the Mono (9 h) was 2% and the Neu (9 h) was 19.4%. It also gave a PT (9 h) of 13.7 s, a Plat (9 h) of 112 x10_4/uL and an RBC (9 h) of 631.8 x10_4/ul. It also gave a Ret (9 h) of 8.8%, a WBC (9 h) of 96.7 x10_2/uL and a KIDNEY_L (9 h) of 0.9 g. For the same compound, the KIDNEY_R (9 h) was 0.9 g, the KIDNEY_TOTAL (9 h) was 1.7 g and the LIVER (9 h) was 7.6 g. The A/G (9 h) was 0.9, the ALP (9 h) was 1320.2 IU/L and the ALT (9 h) was 40.6 IU/L. For the same compound, the AST (9 h) was 75 IU/L, the BUN (9 h) was 9.2 mg/dL and the CRE (9 h) was 0.2 mg/dL. The Ca (9 h) was 10.6 mg/dL, the Cl (9 h) was 106 meq/L and the DBIL (9 h) was 0.008 mg/dL. For the same compound, the GLC (9 h) was 188.4 mg/dL, the IP (9 h) was 10.4 mg/dL and the K (9 h) was 4.1 meq/L. The LDH (9 h) was 79.8 IU/L, the Na (9 h) was 141.6 meq/L and the PL (9 h) was 132.4 mg/dL. It also gave an RALB (9 h) of 2.4 g/dL, a TBIL (9 h) of 0.062 mg/dL and a TC (9 h) of 71.8 mg/dL. It also gave a TG (9 h) of 40.8 mg/dL, a TP (9 h) of 5.1 g/dL and a gamma-GTP (9 h) of 1.2 IU/L. It also gave a TERMINAL_BW (24 h) of 207 g, an APTT (24 h) of 20.6 s and a Bas (24 h) of 0%. For the same compound, the Eos (24 h) was 1%, the Fbg (24 h) was 279.8 mg/dL and the Hb (24 h) was 13.2 g/dL. For the same compound, the Ht (24 h) was 40.3%, the Lym (24 h) was 78% and the MCH (24 h) was 21.1 pg. It also gave an MCHC (24 h) of 32.9%, an MCV (24 h) of 64.1 fL and a Mono (24 h) of 3%. The Neu (24 h) was 16.6%, the PT (24 h) was 13.1 s and the Plat (24 h) was 116.7 x10_4/uL. It also gave an RBC (24 h) of 628.2 x10_4/ul, a Ret (24 h) of 8.3% and a WBC (24 h) of 87 x10_2/uL. For the same compound, the KIDNEY_L (24 h) was 0.9 g, the KIDNEY_R (24 h) was 0.9 g and the KIDNEY_TOTAL (24 h) was 1.8 g. The LIVER (24 h) was 9.5 g, the A/G (24 h) was 0.9 and the ALP (24 h) was 1736 IU/L. The ALT (24 h) was 50 IU/L, the AST (24 h) was 79.4 IU/L and the BUN (24 h) was 13.6 mg/dL. The CRE (24 h) was 0.2 mg/dL, the Ca (24 h) was 11 mg/dL and the Cl (24 h) was 105.2 meq/L. The DBIL (24 h) was 0.01 mg/dL, the GLC (24 h) was 178.4 mg/dL and the IP (24 h) was 8.3 mg/dL. The K (24 h) was 4.2 meq/L, the LDH (24 h) was 109.8 IU/L and the Na (24 h) was 141.2 meq/L. The PL (24 h) was 145.8 mg/dL, the RALB (24 h) was 2.5 g/dL and the TBIL (24 h) was 0.054 mg/dL. The TC (24 h) was 77.4 mg/dL, the TG (24 h) was 80.8 mg/dL and the TP (24 h) was 5.3 g/dL. For the same compound, the gamma-GTP (24 h) was 1 IU/L.

From ChEMBL document CHEMBL3885861, “Open TG-GATES”
